EC50 data for 16 molecules are collected here from BindingDB's records for doi:10.7270/Q2QJ7FRJ (Nmmlsc, 2009).

Structures are written as SMILES.

A word on the EC50: it is the concentration giving half of the maximal effect. Lower therefore signals greater potency.

The target of the first experiment is Cell division control protein 42 homolog (Homo sapiens, UniProt P60953). Kind of experiment: inhibition of fluorescent GTP binding to wildtype Cdc42 – biochemical, pyrazoline analogs, multiplex bead flow cytometry, Ki, SAR follow-up (AID 2019).
Sequence of Cell division control protein 42 homolog (P60953 whole entry): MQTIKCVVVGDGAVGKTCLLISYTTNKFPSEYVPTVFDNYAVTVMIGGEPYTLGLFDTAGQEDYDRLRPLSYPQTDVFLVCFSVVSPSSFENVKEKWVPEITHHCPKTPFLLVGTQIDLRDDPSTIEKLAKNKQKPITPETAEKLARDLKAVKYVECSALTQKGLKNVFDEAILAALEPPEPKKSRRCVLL
Conditions: not given
Molecule `COc1ccc(C2CC(c3ccccc3F)=NN2c2ccc(S(N)(=O)=O)cc2)cc1` (stereo unspecified) [UNM-0000306110] yielded an EC50 of 2.79 µM.

The molecule `COc1ccc(C2CC(c3ccccc3Br)=NN2c2ccc(S(N)(=O)=O)cc2)cc1` (stereo unspecified) [UNM-0000306112] displayed an EC50 of 3.36 µM.

In turn, `COc1ccc(C2CC(c3cccc(Br)c3)=NN2c2ccc(S(N)(=O)=O)cc2)cc1` (stereo unspecified) [UNM-0000306113] displayed an EC50 of 2.07 µM.

Molecule `COc1ccc(C2CC(c3cccc(Cl)c3)=NN2c2ccc(S(N)(=O)=O)cc2)cc1` (stereo unspecified) [UNM-0000306134] showed an EC50 of 1.3 µM. Against the preceding molecule, the EC50 is about 1.6-fold lower.

In turn, `COc1ccc(C2CC(c3ccc(Br)cc3)=NN2c2ccc(S(N)(=O)=O)cc2)cc1` (stereo unspecified) [UNM-0000306138] returned an EC50 of 2.99 µM.

Molecule `COc1ccc(C2CC(c3cccc(C)c3)=NN2c2ccc(S(N)(=O)=O)cc2)cc1` (stereo unspecified) [UNM-0000306153] came in with an EC50 of 3.77 µM.

Consider `NS(=O)(=O)c1ccc(N2N=C(c3ccccc3)CC2c2ccc(Br)cc2)cc1` (stereo unspecified) [UNM-0000306160], for which the EC50 is 1.07 µM.

Staying with this experiment, now noted: inactive by the depositor's call.
`COc1ccc(C2CC(c3ccc(Cl)cc3)=NN2c2ccccc2)cc1OC` (stereo unspecified) [UNM-0000305858] had an EC50 of 30 µM.

For the molecule `FC(F)(F)c1cccc(N2N=C(c3ccc(Cl)cc3)CC2c2ccccc2Cl)c1` (stereo unspecified) [UNM-0000305859], the EC50 is 30 µM.

In turn, `COc1ccc(C2=NN(c3ccccc3F)C(c3ccc(F)cc3)C2)cc1` (stereo unspecified) [UNM-0000305860] gave an EC50 of 30 µM.

As to `COc1ccc(C2=NN(c3ccc(Cl)cc3)C(c3ccccc3F)C2)cc1` (stereo unspecified) [UNM-0000305863], the response was half-maximal at 30 µM (EC50).

Consider `COc1ccc(C2CC(c3ccc(F)cc3)=NN2c2ccccc2)cc1OC` (stereo unspecified) [UNM-0000305864], for which the EC50 was 30 µM. This lies in the double-digit micromolar range.

The molecule `CN(C)c1ccc(C2CC(c3ccc(F)cc3)=NN2c2ccccc2)cc1` (stereo unspecified) [UNM-0000305866] had a concentration giving a half-maximal response (EC50) of 30 µM.

The molecule `COc1ccc(C2CC(c3ccccc3)=NN2c2ccc(C(N)=O)cc2)cc1` (stereo unspecified) [UNM-0000305870] registered an EC50 of 30 µM.

For the molecule `COc1ccc(C2CC(c3ccccc3)=NN2c2ccc(C(=O)O)cc2)cc1` (stereo unspecified) [UNM-0000306085], it took 30 µM to reach a half-maximal effect (EC50).

`COc1ccc(C2CC(c3ccccc3C)=NN2c2ccc(S(N)(=O)=O)cc2)cc1` (stereo unspecified) [UNM-0000306152] had an EC50 of 4.13 µM.
